Data as given in patent EP4114474B1, “HEMOSTATIC AGENT” (Industria Farmaceutica Nova Argentia S.r.l., priority 2020, dated 2021).

How the values were obtained:
NIH3T3L6 fibroblasts = test: In vitro cytotoxicity, trypan blue cell viability; type: cell-based, murine
Procedure: The cytotoxic effect was assessed in vitro thanks to the use of murine fibroblasts (NIH3T3L6 fibroblasts from Leibniz-Institute DSMZ-Deutsche Sammlung von Mikroorganismen und Zellkulturen GmbH; Brunswick, Germany) and, once the cells were propagated, we prepared the following experimental groups: • control (NIH3T3L6 cells without any treatment); • iron chloride 5% ([…]); • iron ammonium citrate 5.3% + Rock alum 1.7% ([…] 5.3% + Rock alum 1.7%); • iron ammonium citrate 5.3% ([…] 5.3%); • Rock alum 1.7% ([…]).
The in vitro cytotoxicity analysis thanks to the evaluation of the trypan blue allowed us to obtain the percentage of viable cells in each experimental group.

[1] = Coagulation tests with combinations of ferric and ferrous salts and other potentially coagulating salts (Example 2); settings: CONC. TEST 5.00% by weight
Procedure: Before reaching the formula object of the invention various other combinations of ferric and ferrous Salts with other potentially coagulating Salts were tested. Below are briefly reported the combinations of Salts tested and the results obtained also in comparison with Ferric Chloride.

Structure (SMILES): O.O.O.O.O.O.[Cl-].[Cl-].[Cl-].[Fe+3] [Ferric Chloride (FeCl3 · 6H2O)]
- cytotoxic effect (cell death, percentage of viable cells by trypan blue) (NIH3T3L6 fibroblasts; NIH3T3L6 cells incubated 30" with 100µL): significant cell death
- cell death (NIH3T3L6 fibroblasts; incubation of murine fibroblasts for a time greater than 45"-50"): complete cell death
- RESULTS (coagulation) [1]: coagulates
